These are literature values, as cited in US20090304576A1, “DEVICE FOR DELIVERY OF ANTI-CANCER AGENTS TO TISSUE” (priority 2006, published 2009).

For the data set the following is noted: diffusion in solid tissue such as brain; estimated.

Consider `O=NN(CCCl)C(=O)NCCCl` [carmustine], for which the “maximum effective range from a source” value is given as “about 5 mm”.
